This passage reports IC50 results from ChEMBL document CHEMBL1132253, “Potent inhibition of influenza sialidase by a benzoic acid containing a 2-pyrrolidinone substituent” (J Med Chem, 1999).

pIC50: −log10 of the molar value.

The test deals with Neuraminidase (Influenza B virus (strain B/Lee/1940), UniProt P03474). The test is described as follows: In vitro inhibitory activity against B/Lee/40 Influenza B Neuraminidase.
Consider `CCC(CC)Nc1cc(C(=O)O)ccc1N1C(=O)CCC1(CO)CO`, for which the pIC50 is 3.98.
`N=C(N)Nc1cc(C(=O)O)ccc1N1C(=O)CCC1(CO)CO` had a pIC50 of 5.10.
Compound `CC(=O)Nc1c(N=C(N)N)cc(C(=O)O)cc1N=C(N)N` showed a pIC50 of 3.60.
`CCC(CC)Nc1cc(C(=O)O)ccc1N1CCCC1=O` had a pIC50 of less than 2.30.
With `O=C(O)c1ccc(N2C(=O)CCC2(CO)CO)cc1`, the pIC50 was less than 2.10.
Compound `NCC1CCC(=O)N1c1ccc(C(=O)O)cc1N=C(N)N` (stereo unspecified) gave a pIC50 of 3.30.
